Reference: ChEMBL document CHEMBL1201862, “PubChem BioAssay data set” (2004)
The source made the active and inactive calls.

Key:
[1] = blockers of CRF-binding protein–CRF-R2 complex – cell-based, uHTS hits, 384-well, dose response (AID 651639); type: functional, Homo sapiens; conditions: read-out: IC50_Mean
[2] = Luminescence Cell-Based Dose Retest to Confirm Inhibitors of Cancer Stem Cells. [Related pubchem assays (depositor defined):AID2717, AID2721]; type: functional; conditions: Homo sapiens
[3] = molecular target: T1, Corticotropin-releasing factor receptor 2/Corticotropin-releasing factor-binding protein (Homo sapiens, UniProt P24387+Q13324); test: activators of CRF receptor 2 with binding protein – uHTS hits, confirmation (AID 602473); type: functional; conditions: read-out: EC50_Mean
T1 sequence (Q13324 whole entry): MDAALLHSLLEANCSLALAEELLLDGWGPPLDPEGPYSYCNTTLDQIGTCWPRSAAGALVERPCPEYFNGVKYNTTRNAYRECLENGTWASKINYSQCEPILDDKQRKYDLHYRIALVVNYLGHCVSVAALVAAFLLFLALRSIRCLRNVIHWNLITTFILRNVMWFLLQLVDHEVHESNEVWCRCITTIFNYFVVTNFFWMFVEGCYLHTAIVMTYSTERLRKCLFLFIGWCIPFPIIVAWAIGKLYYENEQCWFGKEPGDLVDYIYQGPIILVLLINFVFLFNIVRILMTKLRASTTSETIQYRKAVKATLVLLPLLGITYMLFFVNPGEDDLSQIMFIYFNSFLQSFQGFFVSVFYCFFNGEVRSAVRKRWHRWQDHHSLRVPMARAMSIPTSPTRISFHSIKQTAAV
T1 sequence (P24387 whole entry): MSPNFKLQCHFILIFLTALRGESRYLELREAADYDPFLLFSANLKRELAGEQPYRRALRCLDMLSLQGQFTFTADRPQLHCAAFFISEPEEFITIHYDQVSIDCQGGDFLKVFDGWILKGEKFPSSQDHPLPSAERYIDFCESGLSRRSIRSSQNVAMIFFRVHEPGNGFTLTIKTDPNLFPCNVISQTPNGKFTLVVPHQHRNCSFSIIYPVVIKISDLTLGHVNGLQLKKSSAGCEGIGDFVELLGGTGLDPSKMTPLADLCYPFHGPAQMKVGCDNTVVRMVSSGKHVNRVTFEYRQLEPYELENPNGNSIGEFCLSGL

[4] = molecular target: T1, Corticotropin-releasing factor receptor 2/Corticotropin-releasing factor-binding protein; test: Dose Response confirmation of uHTS hits for small molecule antagonists of the CRF-binding protein and CRF-R2 receptor complex.; type: functional; conditions: read-out: IC50_Mean
[5] = bead-based luminescence quenchers, dual-tagged ARNT – biochemical, AlphaScreen, cherry-pick, artefact control for ARNT-TACC3 interaction inhibitor project, dose response (AID 651705); type: functional;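 further: AlphaScreen bead proximity signal that flags compounds interfering with the detection technology; potency reflects signal decrease which marks the compound as an assay artifact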
[6] = microbe, parasite or virus in culture; type: functional; conditions: Mycobacterium tuberculosis
Beta-galactosidase = Beta-galactosidase (Escherichia coli, UniProt Q8VNN2); test: Dose response counterscreen for EBI2 assay utilizing the enzyme, b-galactosidase.; type: functional
Beta-galactosidase, sequence (Q8VNN2 whole entry): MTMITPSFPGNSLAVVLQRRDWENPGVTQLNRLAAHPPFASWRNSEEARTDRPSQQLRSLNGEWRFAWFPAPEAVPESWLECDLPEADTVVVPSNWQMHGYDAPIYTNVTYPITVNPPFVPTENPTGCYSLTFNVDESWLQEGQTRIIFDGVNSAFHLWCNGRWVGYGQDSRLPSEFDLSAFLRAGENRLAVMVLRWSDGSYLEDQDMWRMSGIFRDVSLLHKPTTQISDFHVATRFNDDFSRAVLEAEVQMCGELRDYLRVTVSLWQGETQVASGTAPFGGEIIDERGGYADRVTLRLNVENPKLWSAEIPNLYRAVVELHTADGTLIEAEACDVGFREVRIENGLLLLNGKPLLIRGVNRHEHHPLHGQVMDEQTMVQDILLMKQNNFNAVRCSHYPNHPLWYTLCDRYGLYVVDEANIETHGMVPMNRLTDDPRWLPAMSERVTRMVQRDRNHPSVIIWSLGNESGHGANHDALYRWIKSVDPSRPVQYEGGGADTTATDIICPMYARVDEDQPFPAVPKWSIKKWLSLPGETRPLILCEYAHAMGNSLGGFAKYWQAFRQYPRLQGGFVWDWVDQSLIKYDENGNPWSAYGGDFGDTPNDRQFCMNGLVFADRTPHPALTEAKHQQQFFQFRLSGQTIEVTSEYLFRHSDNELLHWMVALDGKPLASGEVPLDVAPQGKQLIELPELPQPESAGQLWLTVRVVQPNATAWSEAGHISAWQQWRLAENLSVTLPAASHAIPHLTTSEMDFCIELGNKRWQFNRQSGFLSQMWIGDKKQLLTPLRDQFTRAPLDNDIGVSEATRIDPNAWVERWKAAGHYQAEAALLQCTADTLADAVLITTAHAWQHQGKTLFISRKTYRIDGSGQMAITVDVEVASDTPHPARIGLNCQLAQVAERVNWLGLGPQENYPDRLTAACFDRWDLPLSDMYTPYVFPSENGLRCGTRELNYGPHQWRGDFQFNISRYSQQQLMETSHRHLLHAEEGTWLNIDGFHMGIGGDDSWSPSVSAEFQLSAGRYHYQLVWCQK

[7] = molecular target: Ras and Rab interactor 1/Tyrosine-protein kinase ABL1 (Homo sapiens, UniProt P00519+Q13671); type: functional;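 further: biochemical TR-FRET dose-response test measuring inhibition of binding between Rin1 and Abl proteins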
Ras and Rab interactor 1/Tyrosine-protein kinase ABL1, sequence (P00519 whole entry): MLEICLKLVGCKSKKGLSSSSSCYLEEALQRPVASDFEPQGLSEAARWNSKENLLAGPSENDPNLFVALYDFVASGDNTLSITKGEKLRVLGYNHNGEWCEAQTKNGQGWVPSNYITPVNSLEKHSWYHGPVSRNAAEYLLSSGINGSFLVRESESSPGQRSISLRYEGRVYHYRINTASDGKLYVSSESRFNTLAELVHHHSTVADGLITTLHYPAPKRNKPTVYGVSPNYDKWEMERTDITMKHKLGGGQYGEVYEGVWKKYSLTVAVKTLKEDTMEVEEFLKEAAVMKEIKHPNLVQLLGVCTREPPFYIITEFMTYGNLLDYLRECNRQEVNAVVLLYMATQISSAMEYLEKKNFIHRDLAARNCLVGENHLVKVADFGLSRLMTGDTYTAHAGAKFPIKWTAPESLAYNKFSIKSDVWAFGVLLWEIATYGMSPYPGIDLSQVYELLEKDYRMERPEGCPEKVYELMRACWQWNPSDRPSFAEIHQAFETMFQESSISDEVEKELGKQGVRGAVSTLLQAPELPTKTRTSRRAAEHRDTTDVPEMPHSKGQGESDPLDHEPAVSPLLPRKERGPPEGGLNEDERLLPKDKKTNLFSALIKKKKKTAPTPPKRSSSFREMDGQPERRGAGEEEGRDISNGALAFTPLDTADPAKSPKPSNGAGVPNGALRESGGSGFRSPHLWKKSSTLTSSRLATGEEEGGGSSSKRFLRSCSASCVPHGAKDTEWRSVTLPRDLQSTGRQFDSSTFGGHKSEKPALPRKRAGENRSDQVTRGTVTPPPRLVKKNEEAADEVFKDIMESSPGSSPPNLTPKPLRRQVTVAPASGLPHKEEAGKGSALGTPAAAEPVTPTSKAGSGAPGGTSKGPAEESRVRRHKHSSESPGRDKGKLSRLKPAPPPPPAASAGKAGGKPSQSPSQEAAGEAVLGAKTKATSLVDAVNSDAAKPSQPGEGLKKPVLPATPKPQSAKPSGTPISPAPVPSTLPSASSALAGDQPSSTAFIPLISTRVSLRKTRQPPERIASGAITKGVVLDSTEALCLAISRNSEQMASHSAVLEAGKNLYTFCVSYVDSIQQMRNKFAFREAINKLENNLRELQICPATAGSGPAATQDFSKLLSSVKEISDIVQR
Ras and Rab interactor 1/Tyrosine-protein kinase ABL1, sequence (Q13671 whole entry): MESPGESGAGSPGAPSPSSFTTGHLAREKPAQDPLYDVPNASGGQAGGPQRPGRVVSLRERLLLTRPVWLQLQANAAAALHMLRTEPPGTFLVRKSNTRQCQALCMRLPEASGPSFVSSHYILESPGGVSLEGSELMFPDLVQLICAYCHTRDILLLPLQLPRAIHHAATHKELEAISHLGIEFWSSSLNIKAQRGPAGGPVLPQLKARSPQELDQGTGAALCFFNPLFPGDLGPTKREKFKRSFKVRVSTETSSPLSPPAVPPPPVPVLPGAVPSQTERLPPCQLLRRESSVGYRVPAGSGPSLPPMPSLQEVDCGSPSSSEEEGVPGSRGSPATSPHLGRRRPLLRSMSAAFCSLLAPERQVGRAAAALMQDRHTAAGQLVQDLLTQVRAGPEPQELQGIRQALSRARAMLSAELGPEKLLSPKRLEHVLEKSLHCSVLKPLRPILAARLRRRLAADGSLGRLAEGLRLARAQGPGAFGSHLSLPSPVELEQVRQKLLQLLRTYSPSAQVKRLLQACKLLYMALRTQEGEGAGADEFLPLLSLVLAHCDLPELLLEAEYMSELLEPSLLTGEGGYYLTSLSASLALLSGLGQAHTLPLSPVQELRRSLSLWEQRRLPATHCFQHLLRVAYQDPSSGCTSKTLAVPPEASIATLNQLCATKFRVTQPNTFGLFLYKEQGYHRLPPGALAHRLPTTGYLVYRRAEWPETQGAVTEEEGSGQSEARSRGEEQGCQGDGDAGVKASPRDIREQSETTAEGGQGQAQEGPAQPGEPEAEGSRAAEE

Protein Wnt-3a = Protein Wnt-3a (Mus musculus, UniProt P27467); test: antagonism of Wnt3a pathway luciferase reporter – Wnt-LIGHT cells, luminescence, selectivity assay for Gli-SUFU antagonist project, dose response (AID 651570); type: functional; conditions: read-out: IC50_Mean;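 further: Wnt-LIGHT reporter cells stimulated with conditioned medium from Wnt3a-producing cells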
Protein Wnt-3a, sequence (P27467 whole entry): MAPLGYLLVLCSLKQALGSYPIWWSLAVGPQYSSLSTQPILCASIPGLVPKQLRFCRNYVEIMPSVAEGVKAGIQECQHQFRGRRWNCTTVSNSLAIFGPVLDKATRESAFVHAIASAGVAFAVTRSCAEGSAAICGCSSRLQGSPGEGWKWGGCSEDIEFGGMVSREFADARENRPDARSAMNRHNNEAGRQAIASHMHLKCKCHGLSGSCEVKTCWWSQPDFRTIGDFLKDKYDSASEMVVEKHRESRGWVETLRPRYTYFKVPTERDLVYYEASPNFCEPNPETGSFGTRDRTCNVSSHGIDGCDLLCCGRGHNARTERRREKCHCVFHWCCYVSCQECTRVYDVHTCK

INS1 = test: INS-1E survival protection against cytokine death – cell-based, luminescence, retest, dose response (AID 449756); type: functional; conditions: Rattus norvegicus;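 further: cell death triggered by IL-1 beta plus TNF-alpha plus IFN-gamma mixture; protective hits raise ATP signal compared with cytokine alone wells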
[8] = DRD fibroblast viability loss – cell-based, non-viral oncogenic, luminescence, dose response (AID 1934); type: functional; conditions: Homo sapiens
BJ [9] = test: BJ-TERT-LT-ST fibroblast viability loss – cell-based, RAS-independent, luminescence, dose response (AID 1935); type: functional; conditions: Homo sapiens;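 further: BJ fibroblasts immortalized with TERT plus LT and ST oncogenes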
BJ [10] = test: BJ-TERT fibroblast viability loss – cell-based, RAS-independent, luminescence, dose response (AID 1933); type: functional; conditions: Homo sapiens
BJ [11] = test: cells; type: functional, cell-based; conditions: Homo sapiens
[12] = viability of uninfected HEp-2 cells – cell-based, HTS, cytotoxicity control for RSV inhibitor project, dose response (AID 2410); type: functional; conditions: human respiratory syncytial virus
[13] = Luminescence Cell-Based Dose Response HTS to Identify Inhibitors of 5'UTR Stem-Loop Driven Prion Protein mRNA Translation in H4 Neuroglioblastoma Cells. [Related pubchem assays: 1827 (Project Summary), 1813 (Primary HTS)]; type: functional
[14] = alpha-synuclein stem-loop luciferase translation blockers – H4 neuroglioma cells, luminescence, confirmation (AID 1988); type: functional, cell-based
Vero [15] = test: cells; type: functional, cell-based; conditions: Chlorocebus sabaeus
[16] = non-specific 3'UTR reporter inhibition in Clone20-Shn3RL – cell-based, Renilla luciferase, cherry-picked, counter-screen for Shn3 inhibitor project, dose response (AID 624133); type: functional
[17] = loss of viability in HepG2 cells – cell-based, CellTiter-Glo, cherry-picked, cytotoxicity control for Shn3 inhibitor project, dose response (AID 624134); type: functional
[18] = reduction of Shn3 3'UTR-driven luciferase in osteoblasts – cell-based, Clone20 osteoblasts, firefly luciferase, cherry-picked, dose response (AID 624132); type: functional;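 further: firefly luciferase luminescence from reporter carrying the Shn3 3'UTR in osteoblasts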
Vero [19] = test: cells; type: functional; conditions: Chlorocebus sabaeus

## Cc1cc(C)nc(SCc2ccc(C(=O)NNC(=O)Nc3cccc(Cl)c3)cc2)n1
[1]
  IC50: 11.6 µM (active)
[2]
  AC50: 3.65 µM (active)
[3]
  EC50: > 53 µM (inactive)
[4]
  IC50: 5.95 µM (active)

## c1ccc(-c2n[nH]c(-c3ccccn3)n2)cc1
[5]
  AC50: 116 µM (active)
[6]
  CC50: > 40 µM (active)

## CSc1ccc(CN2CCN(C(=O)COc3ccc(C)cc3)CC2)cc1
Beta-galactosidase
  IC50: > 80 µM (inactive)

## CCOCc1nnc(NC(=O)c2c(OC)cccc2OC)s1
[7]
  IC50: 18 µM (inactive)

## COc1ccc(-[n+]2cc(-c3ccc(OC(F)F)cc3)n3c2CCCCC3)cc1
Protein Wnt-3a
  IC50: 12.3 µM (active)
INS1
  AC50: 2.14 µM (active)

## O=c1[nH]c(=O)n(-c2ccc(F)cc2)c2c1C(C(F)(F)F)(C(F)(F)F)NC(c1ccc(F)cc1)=N2
INS1
  AC50: 5.15 µM (active)
[8]
  EC50: 25.7 µM (active)
BJ [9]
  EC50: > 150 µM (not active)
BJ [10]
  EC50: > 150 µM (not active)
[1]
  IC50: 13.2 µM (active)
BJ [11]
  EC50: 66.7 µM (inconclusive)

## Cc1cc(C(=O)Cn2nnc3ccccc3c2=O)c(C)n1-c1ccccc1F
[12]
  CC50: 20.4 µM (active)
cells
  IC50: 30.9 µM (active)
[13]
  EC50: 10.1 µM (active)
[14]
  EC50: 9.28 µM (active)
Vero [15]
  IC50: 6.16 µM (active)

## Cc1cc(C)c(C(N)=O)c(SCC(=O)c2cc(C)n(-c3cc(C)on3)c2C)n1
Protein Wnt-3a
  IC50: 1.8 µM (active)
[16]
  AC50: 0.332 µM (active)
[17]
  AC50: 1.68 µM (active)
[18]
  AC50: 0.942 µM (active)

## O=C(Nc1ccccc1SCC1CSc2nc3ccccc3c(=O)n21)c1cccc(Cl)c1 (centres undefined)
[12]
  CC50: 24.7 µM (active)
Vero [19]
  CC50: > 25 µM (active)
cells
  IC50: 10.3 µM (active)
Vero [15]
  IC50: 14.9 µM (active)
